Data published in patent US20110230481A2, “DERIVATIVES OF TETRABROMOBENZIMIDAZOLE, A PROCESS FOR THE PREPARATION THEREOF, A PHARMACEUTICAL COMPOSITION COMPRISING THE SAME, A METHOD OF USING THE SAME, A METHOD FOR MODULATING OR REGULATING SERINE/THREONINE KINASES, AND SERINE/THREONINE KINASES MODULATING AGENT” (SELVITA S.A., priority 2009, published 2011).

Experiments:
Assay in all cases: KINOMEscan Max
Format in all cases: binding
[1] = target: ACVR1B (Homo sapiens, UniProt P36896)
Summary of the method: (§1)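 In this platform each kinase carries a DNA tag and is offered an immobilized ligand aimed at the active site; test compound competes for binding, and the amount of kinase held on the ligand is measured by qPCR.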

[2] = target: T1, AKT1 (Homo sapiens, UniProt P31749)
T1 construct: purchased Ambit (KINOMEscan Max service)
Summary of the method: as §1

[3] = target: BMPR2 (Homo sapiens, UniProt Q13873); conditions: 1 μM
Summary of the method: as §1

[4] = target: CDK3 (Homo sapiens, UniProt Q00526); conditions: 1 μM
Summary of the method: as §1

[5] = target: T2, CDK7 (Homo sapiens, UniProt P50613)
T2 construct: DNA tag (qPCR read-out)
Summary of the method: as §1

[6] = target: T3, DDR2 (Homo sapiens, UniProt Q16832)
T3 construct: purchased Ambit (KINOMEscan Max panel service)
Summary of the method: as §1

[7] = target: ERK8 (Homo sapiens, UniProt Q8TD08)
Summary of the method: as §1

[8] = target: T4, FER (Homo sapiens, UniProt P16591)
T4 construct: purchased Ambit Kinomescan (contract panel, KINOMEscan Max)
Summary of the method: as §1

[9] = target: T5, FLT1 (Homo sapiens, UniProt P17948)
T5 construct: purchased Ambit Kinomescan (contract panel, KINOMEscan Max)
Summary of the method: as §1

[10] = target: T6, FLT3(K663Q) (Homo sapiens, UniProt P36888, K663Q)
T6 construct: purchased Ambit Kinomescan (contract screening)
Summary of the method: as §1

[11] = target: T7, GSK3B (Homo sapiens, UniProt P49841)
T7 construct: purchased Ambit Kinomescan (contract panel, KINOMEscan Max)
Summary of the method: as §1

[12] = target: T8, HUNK (Homo sapiens, UniProt P57058)
T8 construct: purchased Ambit Kinomescan (contract panel, KINOMEscan Max)
Summary of the method: as §1

[13] = target: T9, INSRR (Homo sapiens, UniProt P14616)
T9 construct: purchased Ambit Kinomescan (contract panel, KINOMEscan Max)
Summary of the method: as §1

[14] = target: T10, JNK1 (Homo sapiens, UniProt P45983); conditions: 1 μM
T10 construct: purchased Ambit Kinomescan (contract panel)
Summary of the method: as §1

[15] = target: T11, LCK (Homo sapiens, UniProt P06239)
T11 construct: purchased Ambit Kinomescan (contract panel)
Summary of the method: as §1

[16] = target: T12, LKB1 (Homo sapiens, UniProt Q15831)
T12 construct: purchased Ambit Kinomescan (contract screening)
Summary of the method: as §1

[17] = target: T13, MAPKAPK2 (Homo sapiens, UniProt P49137)
T13 construct: purchased Ambit Kinomescan (contract panel)
Summary of the method: as §1

[18] = target: T14, MEK1 (Homo sapiens, UniProt Q02750)
T14 construct: purchased Ambit Kinomescan (contract panel)
Summary of the method: as §1

[19] = target: MEK5 (Homo sapiens, UniProt Q13163)
Summary of the method: as §1

[20] = target: T15, MET (Homo sapiens, UniProt P08581); conditions: 1 μM
T15 construct: purchased Ambit Kinomescan (contract screening)
Summary of the method: as §1

[21] = target: MKNK1 (Homo sapiens, UniProt Q9BUB5)
Summary of the method: as §1

[22] = target: T16, NEK7 (Homo sapiens, UniProt Q8TDX7)
T16 construct: DNA tag (qPCR read-out)
Summary of the method: as §1

[23] = target: T17, PFCDPK1(P.falciparum) (Plasmodium falciparum, UniProt P62344)
T17 construct: purchased Ambit Kinomescan (contract screening)
Summary of the method: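 qPCR read-out of a DNA tag measures how much tagged kinase stays bound to immobilized active-site ligand when test compound is present, i.e. competition binding.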

[24] = target: T18, PFTK1 (Homo sapiens, UniProt O94921); conditions: 1 μM
T18 construct: DNA tag (qPCR read-out)
Summary of the method: as §1

[25] = target: T19, PIK3CA (Homo sapiens, UniProt P42336)
T19 construct: DNA tag (qPCR read-out)
Summary of the method: as §1

[26] = target: PKMYT1 (Homo sapiens, UniProt Q99640); conditions: 1 μM
Summary of the method: as §1

[27] = target: T20, PLK3 (Homo sapiens, UniProt Q9H4B4)
T20 construct: purchased Ambit (KINOMEscan Max service)
Summary of the method: as §1

[28] = target: T21, PRKD2 (Homo sapiens, UniProt Q9BZL6)
T21 construct: DNA tag (qPCR read-out)
Summary of the method: as §1

[29] = target: T22, PYK2 (Homo sapiens, UniProt Q14289)
T22 construct: DNA tag (qPCR read-out)
Summary of the method: as §1

[30] = target: T23, RSK3(Kin.Dom.2-C-terminal) (Homo sapiens, UniProt Q15349)
T23 construct: RSK3(Kin.Dom.2-C-terminal); purchased Ambit Kinomescan (contract screening)
Summary of the method: as §1

[31] = target: T24, SRMS (Homo sapiens, UniProt Q9H3Y6)
T24 construct: DNA tag (qPCR read-out)
Summary of the method: as §1

[32] = target: TESK1 (Homo sapiens, UniProt Q15569)
Summary of the method: as §1

[33] = target: T25, TGFBR1 (Homo sapiens, UniProt P36897)
T25 construct: purchased Ambit Kinomescan (contract screening service)
Summary of the method: as §1

[34] = target: T26, YANK1 (Homo sapiens, UniProt Q8WU08)
T26 construct: purchased Ambit Kinomescan (contract screening service)
Summary of the method: as §1

[35] = target: p38-alpha (Homo sapiens, UniProt Q16539); conditions: 1 μM
Summary of the method: as §1

T1 sequence (P31749 whole entry): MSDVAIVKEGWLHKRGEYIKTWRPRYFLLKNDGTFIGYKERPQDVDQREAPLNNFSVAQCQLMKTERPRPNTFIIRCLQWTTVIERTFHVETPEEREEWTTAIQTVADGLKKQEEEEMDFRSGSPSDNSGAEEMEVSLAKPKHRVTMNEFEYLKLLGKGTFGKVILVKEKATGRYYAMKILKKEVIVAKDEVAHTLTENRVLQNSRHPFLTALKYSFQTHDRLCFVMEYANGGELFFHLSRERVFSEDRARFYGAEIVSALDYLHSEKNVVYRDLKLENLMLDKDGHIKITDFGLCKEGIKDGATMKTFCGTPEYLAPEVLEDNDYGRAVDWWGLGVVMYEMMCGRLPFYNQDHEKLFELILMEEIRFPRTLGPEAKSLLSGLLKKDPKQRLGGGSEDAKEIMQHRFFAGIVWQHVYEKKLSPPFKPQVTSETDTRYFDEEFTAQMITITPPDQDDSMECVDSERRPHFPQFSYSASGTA
T11 sequence (P06239 whole entry): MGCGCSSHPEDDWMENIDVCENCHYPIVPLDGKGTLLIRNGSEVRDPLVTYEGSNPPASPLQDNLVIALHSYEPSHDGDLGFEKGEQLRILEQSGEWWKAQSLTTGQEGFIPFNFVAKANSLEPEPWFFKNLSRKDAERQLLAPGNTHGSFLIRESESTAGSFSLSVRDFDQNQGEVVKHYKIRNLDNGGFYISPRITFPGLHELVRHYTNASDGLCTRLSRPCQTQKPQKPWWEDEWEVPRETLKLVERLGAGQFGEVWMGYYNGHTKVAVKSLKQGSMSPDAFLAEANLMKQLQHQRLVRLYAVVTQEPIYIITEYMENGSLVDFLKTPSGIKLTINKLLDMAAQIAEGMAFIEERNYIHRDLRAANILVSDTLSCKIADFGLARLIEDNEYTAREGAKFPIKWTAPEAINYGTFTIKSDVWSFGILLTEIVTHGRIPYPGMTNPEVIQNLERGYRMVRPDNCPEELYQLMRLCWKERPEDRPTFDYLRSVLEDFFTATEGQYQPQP
T20 sequence (Q9H4B4 whole entry): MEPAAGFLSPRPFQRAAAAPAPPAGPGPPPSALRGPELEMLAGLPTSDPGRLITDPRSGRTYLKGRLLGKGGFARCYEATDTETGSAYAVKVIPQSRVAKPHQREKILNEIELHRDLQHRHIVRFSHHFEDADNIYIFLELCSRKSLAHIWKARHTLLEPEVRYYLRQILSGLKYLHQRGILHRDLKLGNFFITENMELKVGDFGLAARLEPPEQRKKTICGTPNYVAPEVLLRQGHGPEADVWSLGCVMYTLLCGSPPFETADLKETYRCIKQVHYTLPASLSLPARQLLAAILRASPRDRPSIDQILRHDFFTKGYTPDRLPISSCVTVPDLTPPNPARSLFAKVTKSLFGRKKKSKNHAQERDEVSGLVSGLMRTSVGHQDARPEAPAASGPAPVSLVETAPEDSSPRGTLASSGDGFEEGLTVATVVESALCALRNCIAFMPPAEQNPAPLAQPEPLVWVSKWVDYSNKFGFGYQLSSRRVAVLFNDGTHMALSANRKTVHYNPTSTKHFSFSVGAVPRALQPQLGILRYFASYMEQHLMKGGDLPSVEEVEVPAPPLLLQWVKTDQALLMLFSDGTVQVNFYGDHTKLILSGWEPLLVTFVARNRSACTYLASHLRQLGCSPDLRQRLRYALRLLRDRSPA
Sequence of BMPR2 (Q13873 27-1038): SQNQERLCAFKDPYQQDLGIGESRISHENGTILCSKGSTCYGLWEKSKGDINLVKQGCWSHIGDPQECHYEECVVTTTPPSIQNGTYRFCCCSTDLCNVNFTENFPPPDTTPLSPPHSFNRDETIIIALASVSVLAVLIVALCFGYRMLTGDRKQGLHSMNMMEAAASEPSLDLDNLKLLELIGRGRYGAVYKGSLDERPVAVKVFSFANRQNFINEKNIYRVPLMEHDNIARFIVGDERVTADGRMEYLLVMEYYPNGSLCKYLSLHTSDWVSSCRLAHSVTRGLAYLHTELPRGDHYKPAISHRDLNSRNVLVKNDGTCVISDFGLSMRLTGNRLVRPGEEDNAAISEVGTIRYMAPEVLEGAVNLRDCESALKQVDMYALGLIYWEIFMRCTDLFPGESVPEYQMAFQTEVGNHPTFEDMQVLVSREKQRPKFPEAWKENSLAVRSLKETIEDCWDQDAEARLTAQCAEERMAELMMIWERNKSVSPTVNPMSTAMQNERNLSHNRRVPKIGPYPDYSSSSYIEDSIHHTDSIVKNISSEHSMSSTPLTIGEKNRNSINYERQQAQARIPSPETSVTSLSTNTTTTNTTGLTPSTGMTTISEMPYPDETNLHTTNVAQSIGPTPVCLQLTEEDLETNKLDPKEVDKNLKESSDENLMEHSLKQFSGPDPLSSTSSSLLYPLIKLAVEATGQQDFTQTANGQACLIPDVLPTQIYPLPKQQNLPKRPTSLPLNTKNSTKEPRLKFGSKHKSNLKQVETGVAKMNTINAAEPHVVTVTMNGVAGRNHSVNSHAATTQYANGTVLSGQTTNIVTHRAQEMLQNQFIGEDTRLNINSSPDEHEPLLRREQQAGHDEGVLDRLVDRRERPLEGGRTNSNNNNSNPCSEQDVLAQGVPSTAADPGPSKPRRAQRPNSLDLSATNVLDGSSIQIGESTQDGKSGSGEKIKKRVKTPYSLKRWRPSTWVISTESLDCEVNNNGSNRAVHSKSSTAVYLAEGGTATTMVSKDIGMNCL
T2 sequence (P50613 whole entry): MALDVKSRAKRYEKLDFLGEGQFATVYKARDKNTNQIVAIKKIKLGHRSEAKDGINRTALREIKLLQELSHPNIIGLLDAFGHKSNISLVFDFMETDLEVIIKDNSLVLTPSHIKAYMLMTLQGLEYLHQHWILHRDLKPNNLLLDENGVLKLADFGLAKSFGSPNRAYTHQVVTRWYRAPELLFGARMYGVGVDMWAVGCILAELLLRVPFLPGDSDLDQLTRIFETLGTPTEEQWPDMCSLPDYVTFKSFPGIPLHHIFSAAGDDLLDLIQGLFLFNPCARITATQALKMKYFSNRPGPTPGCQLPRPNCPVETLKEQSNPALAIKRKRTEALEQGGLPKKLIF
T21 sequence (Q9BZL6 whole entry): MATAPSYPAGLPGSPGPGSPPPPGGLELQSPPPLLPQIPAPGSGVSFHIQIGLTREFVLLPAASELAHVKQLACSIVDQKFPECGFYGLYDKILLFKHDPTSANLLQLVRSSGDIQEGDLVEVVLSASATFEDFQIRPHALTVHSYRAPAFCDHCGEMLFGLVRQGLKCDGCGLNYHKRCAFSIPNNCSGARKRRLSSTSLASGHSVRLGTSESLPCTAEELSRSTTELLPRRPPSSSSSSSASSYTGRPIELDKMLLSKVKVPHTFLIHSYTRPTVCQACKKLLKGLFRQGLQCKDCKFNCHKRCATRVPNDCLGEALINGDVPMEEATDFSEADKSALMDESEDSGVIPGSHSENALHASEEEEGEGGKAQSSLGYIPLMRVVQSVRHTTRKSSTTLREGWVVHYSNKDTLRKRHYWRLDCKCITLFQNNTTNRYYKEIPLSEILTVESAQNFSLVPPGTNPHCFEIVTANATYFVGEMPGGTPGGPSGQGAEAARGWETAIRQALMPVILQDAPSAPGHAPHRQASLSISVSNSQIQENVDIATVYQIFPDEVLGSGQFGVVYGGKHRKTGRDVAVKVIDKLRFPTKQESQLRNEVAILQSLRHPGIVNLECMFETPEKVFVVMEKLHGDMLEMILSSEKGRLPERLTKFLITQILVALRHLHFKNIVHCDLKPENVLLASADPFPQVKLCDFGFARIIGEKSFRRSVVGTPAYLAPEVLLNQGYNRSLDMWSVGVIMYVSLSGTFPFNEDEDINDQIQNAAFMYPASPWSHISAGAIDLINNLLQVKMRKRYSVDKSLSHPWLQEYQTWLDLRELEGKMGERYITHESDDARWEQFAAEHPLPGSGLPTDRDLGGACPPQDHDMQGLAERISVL
T10 sequence (P45983 whole entry): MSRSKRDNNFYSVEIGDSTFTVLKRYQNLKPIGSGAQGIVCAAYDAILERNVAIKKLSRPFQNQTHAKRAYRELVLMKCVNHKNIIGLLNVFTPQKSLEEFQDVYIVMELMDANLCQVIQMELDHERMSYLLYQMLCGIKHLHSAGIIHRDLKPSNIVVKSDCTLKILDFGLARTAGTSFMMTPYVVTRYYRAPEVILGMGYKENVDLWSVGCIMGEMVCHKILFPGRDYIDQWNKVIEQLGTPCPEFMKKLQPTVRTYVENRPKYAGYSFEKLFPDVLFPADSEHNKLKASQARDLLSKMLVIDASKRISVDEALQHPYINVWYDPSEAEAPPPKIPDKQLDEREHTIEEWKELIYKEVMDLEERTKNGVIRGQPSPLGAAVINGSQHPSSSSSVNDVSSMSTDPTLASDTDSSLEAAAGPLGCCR
Sequence of MKNK1 (Q9BUB5 whole entry): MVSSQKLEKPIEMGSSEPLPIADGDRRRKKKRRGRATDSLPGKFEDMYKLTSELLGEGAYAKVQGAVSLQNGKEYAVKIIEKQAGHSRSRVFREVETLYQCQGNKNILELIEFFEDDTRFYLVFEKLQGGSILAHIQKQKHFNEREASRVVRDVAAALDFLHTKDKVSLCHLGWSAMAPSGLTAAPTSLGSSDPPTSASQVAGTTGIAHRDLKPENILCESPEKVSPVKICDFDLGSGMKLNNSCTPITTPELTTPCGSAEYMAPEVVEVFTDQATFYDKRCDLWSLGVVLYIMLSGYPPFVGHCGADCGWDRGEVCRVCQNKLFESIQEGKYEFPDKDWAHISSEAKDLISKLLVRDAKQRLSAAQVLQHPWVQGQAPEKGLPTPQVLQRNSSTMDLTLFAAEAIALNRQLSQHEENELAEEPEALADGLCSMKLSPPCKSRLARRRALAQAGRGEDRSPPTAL
T23 sequence (Q15349 415-672 limits assumed): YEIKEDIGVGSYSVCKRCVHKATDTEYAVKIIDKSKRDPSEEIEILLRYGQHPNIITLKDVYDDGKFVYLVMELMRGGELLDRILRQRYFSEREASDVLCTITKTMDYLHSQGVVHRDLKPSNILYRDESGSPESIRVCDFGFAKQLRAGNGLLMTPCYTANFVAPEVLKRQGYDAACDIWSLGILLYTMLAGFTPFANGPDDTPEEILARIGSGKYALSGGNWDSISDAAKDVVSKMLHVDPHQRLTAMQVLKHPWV

In the case of NCCCNc1nc2c(Br)c(Br)c(Br)c(Br)c2[nH]1 [Compound 11, N-(3-aminopropyl)-4,5,6,7-tetrabromo-1H-benzo[d]imidazol-2-amine], the remaining binding at 1 µM [1] is reported as 100%, the remaining binding at 1 µM [2] is reported as 70% and the “% binding” value [3] is reported as 99%. The “% binding” value [4] was 74%, the remaining binding at 1 µM [5] was 27% and the remaining binding at 1 µM [6] was 100%. It also gave a remaining binding at 1 µM [7] of 72%, a remaining binding at 1 µM [8] of 100% and a remaining binding at 1 µM [9] of 100%. For the same molecule, the remaining binding at 1 µM [10] was 97%, the remaining binding at 1 µM [11] was 100% and the remaining binding at 1 µM [12] was 100%. For the same molecule, the remaining binding at 1 µM [13] was 100%, the “% binding” value [14] was 100% and the remaining binding at 1 µM [15] was 100%. The remaining binding at 1 µM [16] was 96%, the remaining binding at 1 µM [17] was 100% and the remaining binding at 1 µM [18] was 100%. The remaining binding at 1 µM [19] was 73%, the “% binding” value [20] was 97% and the remaining binding at 1 µM [21] was 100%. For the same molecule, the remaining binding at 1 µM [22] was 86%, the remaining binding at 1 µM [23] was 96% and the “% binding” value [24] was 100%. For the same molecule, the remaining binding at 1 µM [25] was 100%, the “% binding” value [26] was 99% and the remaining binding at 1 µM [27] was 67%. For the same molecule, the remaining binding at 1 µM [28] was 42%, the remaining binding at 1 µM [29] was 100% and the remaining binding at 1 µM [30] was 97%. It also gave a remaining binding at 1 µM [31] of 100%, a remaining binding at 1 µM [32] of 93% and a remaining binding at 1 µM [33] of 100%. For the same molecule, the remaining binding at 1 µM [34] was 100% and the “% binding” value [35] was 100%.
